# pIC50: −log10 of the molar value.
# Target: T1, Protein Tat (Human immunodeficiency virus type 1 group M subtype B (isolate PCV12)(HIV-1), UniProt P04326)
# T1 sequence (P04326 whole entry): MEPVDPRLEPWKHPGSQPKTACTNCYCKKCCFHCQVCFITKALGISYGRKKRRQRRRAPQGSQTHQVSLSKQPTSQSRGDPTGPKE
# Experiment: Inhibition of Tat peptide binding to HIV-1 TAR RNA
# Set-up: species or system Human immunodeficiency virus type 1 (CLONE 12)
row,pIC50,SMILES
1,7.55,N=C(N)NCCCC(NC(=O)c1ccc2ccc3cccc4ccc1c2c34)C(=O)NCC1OC(OC2C(N)CC(N)C(O)C2O)C(N)C(O)C1O (centres undefined)
2,6.22,N=C(N)NCCCC(N)C(=O)NCC1O[C@@H](OC2C(N)C[C@@H](N)[C@@H](O)[C@H]2O)[C@@H](N)[C@@H](O)C1O (some centres undefined)
3,5.77,NC1C[C@@H](N)[C@@H](O)[C@@H](O)C1O[C@@H]1OC(CNC(=O)c2ccc3ccc4cccc5ccc2c3c45)C(O)[C@H](O)[C@@H]1N (some centres undefined)

row,SMILES,pIC50
1,"NC[C@H]1OC(O[C@H]2[C@H](O)C(O)[C@H](N)C[C@@H]2N)C(N)[C@@H](O)[C@@H]1O (single isomer, unassigned) [NEAMINE]",4.55
